The target of data set [1] is human recombinant BACE1 (Homo sapiens (Human), UniProt P56817). Nature of the data set: In vitro enzymatic BACE1 FRET assay. The data set is classed as biochemical. Conditions: read-out: IC50 IP (μM) BACE1 enzyme. Put shortly: (§1)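 Ni-NTA-purified recombinant protease incubated with compound; reaction started with 50 nM FRET peptide substrate (fluorophore/quencher flanking the BACE cleavage site) and run 1 h. Stopped with Tris buffer raising pH to neutral; fluorescence read at ex 488/em 590 nm.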
Chain of human recombinant BACE1 (P56817 46-501): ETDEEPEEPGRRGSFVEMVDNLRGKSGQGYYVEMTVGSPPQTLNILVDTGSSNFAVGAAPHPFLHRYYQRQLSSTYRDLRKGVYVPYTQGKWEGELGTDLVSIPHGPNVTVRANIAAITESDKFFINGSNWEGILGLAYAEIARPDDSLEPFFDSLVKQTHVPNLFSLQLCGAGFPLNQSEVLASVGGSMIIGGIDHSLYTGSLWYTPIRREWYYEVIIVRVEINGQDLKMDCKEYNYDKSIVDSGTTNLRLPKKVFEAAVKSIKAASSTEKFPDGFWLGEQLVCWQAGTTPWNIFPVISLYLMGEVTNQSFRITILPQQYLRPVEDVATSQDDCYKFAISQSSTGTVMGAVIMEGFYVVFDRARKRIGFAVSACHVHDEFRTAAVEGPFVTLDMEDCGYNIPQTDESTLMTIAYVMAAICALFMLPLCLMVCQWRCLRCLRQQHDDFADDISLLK

Data set [2] has as its target human recombinant BACE2 (Homo sapiens (Human), UniProt Q9Y5Z0). As to the kind of experiment: In vitro enzymatic BACE2 FRET assay. The data set is classed as biochemical. Conditions: read-out: IC50 IP (μM) BACE2 enzyme. Put shortly: as §1
For data set [3], the system named is Aβ40 in conditioned medium of cells stably expressing Amyloid Precursor Protein (APP). As to the kind of experiment: In vitro BACE-1 cell-based assay (Aβ40 sandwich ELISA). The following applies: read-out: IC50 IP (μM) BACE1 cell. Put shortly:
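APP-expressing cells treated 24 h at 37 °C with compound in 10-point dose response (top 100 μM or 10 μM, 0.1% DMSO final). Secreted Aβ40 in conditioned medium quantified by sandwich ELISA (pAb40 capture, biotinylated 6E10 detection, time-resolved europium fluorescence); IC50 from percent inhibition versus concentration.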

Data set [4] has as its target Recombinant Cat D (Homo sapiens (Human), UniProt P07339). Nature of the data set: In vitro enzymatic Cathepsin D (Cat D) FRET assay. The data set is classed as biochemical. The following applies: read-out: IC50 IP (μM) CatD. Put shortly:
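CHO-expressed enzyme; buffer 0.05 M citrate pH 3.5, 5 mM CHAPS, 10% DMSO final. Start with FRET substrate 20 nM, 1 h incubation, Tris stop (pH to neutral), fluorescence ex 500 nm/em 580 nm.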

The subject of data set [5] is Aβ 40 in rat CSF. Nature of the data set: In vivo inhibition of beta-secretase: Aβ40 reduction in rat CSF. Conditions: 10 mpk, after 4 h. Put shortly: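 Male Sprague Dawley rats (200 g) dosed orally in 2% HPMC, 1% Tween80, pH 2.2, at 3, 10 or 30 mg/kg; CSF and brain taken 4 h later. Brain homogenate centrifuged at 355,000 g; Aβ40 measured by ECL sandwich ELISA (4G8 capture, Abeta40 C-terminal Fab detection), as % reduction versus vehicle controls.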

The test system of data set [6] is Aβ 40 in rat brain. As to the kind of experiment: In vivo inhibition of beta-secretase: Aβ40 reduction in rat brain. The following applies: 10 mpk, after 4 h. Put shortly:
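Rats were dosed by oral gavage at up to 100 mg/kg in 2% HPMC, 1% Tween80, pH 2.2, with vehicle-only controls. Supernatant Aβ40 was measured by ECL sandwich ELISA with biotinylated-4G8 capture and C-terminal Fab40 detection.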

In data set [7] the test system is Aβ in lumbar CSF. Conditions: oral dosing of 30 or 90 mg; cited from earlier work.
The conditions of data set [8]: healthy volunteers; cited from earlier work.
Data set [9] has as its system pigment epithelium of the rat's eye. The following applies: higher compound dose given for three months; cited from earlier work.
The conditions of data set [10]: cited from earlier work.
Data set [11] has as its system CSF Aβ40. Conditions: healthy individuals, 36 h post-dose, cited from earlier work.
The conditions of data set [12]: phase 1, healthy individuals; cited from earlier work.

Like-named read-outs stand apart in the source and are kept apart here.

Chain of human recombinant BACE2 (Q9Y5Z0 63-518): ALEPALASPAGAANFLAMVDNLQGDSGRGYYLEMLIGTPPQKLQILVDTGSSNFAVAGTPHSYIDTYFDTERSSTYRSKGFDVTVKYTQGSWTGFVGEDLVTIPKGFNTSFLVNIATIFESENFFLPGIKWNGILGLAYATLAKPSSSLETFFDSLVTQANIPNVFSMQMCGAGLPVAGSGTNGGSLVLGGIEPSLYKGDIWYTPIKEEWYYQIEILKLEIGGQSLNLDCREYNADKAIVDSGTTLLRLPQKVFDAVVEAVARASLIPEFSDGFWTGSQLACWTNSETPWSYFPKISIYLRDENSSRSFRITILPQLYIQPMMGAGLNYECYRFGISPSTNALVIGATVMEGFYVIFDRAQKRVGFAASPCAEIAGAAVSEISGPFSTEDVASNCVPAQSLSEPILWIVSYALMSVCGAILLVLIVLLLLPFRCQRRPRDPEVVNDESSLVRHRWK
Chain of Recombinant Cat D (P07339 65-412): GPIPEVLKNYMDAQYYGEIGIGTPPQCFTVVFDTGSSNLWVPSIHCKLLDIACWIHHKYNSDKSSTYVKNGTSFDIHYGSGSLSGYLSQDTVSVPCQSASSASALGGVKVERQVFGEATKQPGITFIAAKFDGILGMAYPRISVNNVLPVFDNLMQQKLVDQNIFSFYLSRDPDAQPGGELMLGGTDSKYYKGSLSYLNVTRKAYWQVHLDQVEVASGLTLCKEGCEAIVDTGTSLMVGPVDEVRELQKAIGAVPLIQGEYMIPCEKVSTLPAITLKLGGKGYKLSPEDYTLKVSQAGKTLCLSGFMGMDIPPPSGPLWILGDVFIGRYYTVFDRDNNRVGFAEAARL

By IC50 is commonly meant the point on the concentration scale where inhibition reaches its midpoint. Take `C#CCOc1cnc2c(Nc3cc(F)c(F)c([C@@]4(C)N=C(N)S[C@@]5(C(F)F)C[C@@H]45)c3)ncnc2c1` [Example 945, N-(3-((1S,5S,6S)-3-amino-1-(difluoromethyl)-5-methyl-2-thia-4-azabicyclo[4.1.0]hept-3-en-5-yl)-4,5-difluorophenyl)-7-(2-propyn-1-yloxy)pyrido[3,2-d]pyrimidin-4-amine]: the IC50 in data set [1] came out at 0.00105 µM; in data set [2] it was 0.0661 µM; in data set [3], 0.00709 µM; in data set [4] it was 381 µM. For the same compound, in data set [5], the “% Aβ 40 reduction in rat CSF at 10 mpk” value was 68%. Also, the “% Aβ 40 reduction in rat brain at 10 mpk” value in [6] amounted to 55%.
In the case of `C#C[C@H](C)Oc1cnc(C(=O)Nc2ccc(F)c([C@@]3(C)N=C(N)S[C@@]4(COC)C[C@H]43)c2)cn1` [Example 965, N-(3-((1S,5S,6S)-3-amino-1-(methoxymethyl)-5-methyl-2-thia-4-azabicyclo[4.1.0]hept-3-en-5-yl)-4-fluorophenyl)-5-(((1S)-1-methyl-2-propyn-1-yl)oxy)-2-pyrazinecarboxamide], the IC50 in [1] is 0.000618 µM; in data set [2], 0.0638 µM; in [3], 0.00287 µM; in [4] it was more than 400 µM. Moreover, the “% Aβ 40 reduction in rat CSF at 10 mpk” value in data set [5] worked out at 33%. Also, the “% Aβ 40 reduction in rat brain at 10 mpk” value in data set [6] came to 20%.
Consider `C#C[C@H](C)Oc1cnc(C(=O)Nc2ccc(F)c([C@@]3(C)N=C(N)S[C@@]4(C(F)F)C[C@@H]34)c2)cn1` [Example 966, N-(3-((1S,5S,6S)-3-amino-1-(difluoromethyl)-5-methyl-2-thia-4-azabicyclo[4.1.0]hept-3-en-5-yl)-4-fluorophenyl)-5-(((1S)-1-methyl-2-propyn-1-yl)oxy)-2-pyrazinecarboxamide], for which the IC50 stood at 0.000385 µM in data set [1], 0.0419 µM in data set [2], 0.00182 µM in data set [3] and 735 µM in data set [4]. The “% Aβ 40 reduction in rat CSF at 10 mpk” value in [5] was 67%. The “% Aβ 40 reduction in rat brain at 10 mpk” value in [6] is recorded as 68%.
For `CC(C)NC(=O)[C@]12C[C@H]1[C@@](C)(c1cc(NC(=O)c3cnc(OCC(F)(F)F)cn3)ccc1F)N=C(N)S2` [Example 976, (1S,5S,6S)-3-amino-5-(2-fluoro-5-(5-(2,2,2-trifluoroethoxy)pyrazine-2-carboxamido)phenyl)-N-isopropyl-5-methyl-2-thia-4-azabicyclo[4.1.0]hept-3-ene-1-carboxamide], the IC50 in data set [1] is 0.000527 µM; in data set [2], 0.268 µM; in data set [3] it was 0.0101 µM; in data set [4], 260 µM. Moreover, in data set [5], the “% Aβ 40 reduction in rat CSF at 10 mpk” value came to 36%. Besides, the “% Aβ 40 reduction in rat brain at 10 mpk” value in data set [6] amounted to 16%.
In the case of `COC[C@]12C[C@H]1[C@@](C)(c1cc(NC(=O)c3cnc(OCC4CC4)cn3)cc(F)c1F)N=C(N)S2` [Example 1021, N-(3-((1S,5S,6S)-3-amino-1-(methoxymethyl)-5-methyl-2-thia-4-azabicyclo[4.1.0]hept-3-en-5-yl)-4,5-difluorophenyl)-5-(cyclopropylmethoxy)-2-pyrazinecarboxamide], the IC50 was found to be 0.000918 µM in data set [1], 0.0808 µM in data set [2], 0.0116 µM in [3] and 776 µM in data set [4]. The “% Aβ 40 reduction in rat CSF at 10 mpk” value in data set [5] is on record as 44%. In addition, the “% Aβ 40 reduction in rat brain at 10 mpk” value in data set [6] amounted to 25%.
For the compound `Cc1noc(COc2cnc(C(=O)Nc3ccc(F)c([C@@]4(C)N=C(N)S[C@@]5(C(F)F)C[C@@H]45)c3)cn2)n1` [Example 1039, N-(3-((1S,5S,6S)-3-amino-1-(difluoromethyl)-5-methyl-2-thia-4-azabicyclo[4.1.0]hept-3-en-5-yl)-4-fluorophenyl)-5-((3-methyl-1,2,4-oxadiazol-5-yl)metnoxy)-2-pyrazinecarboxamide], the IC50 in data set [1] stood at 0.000941 µM; in data set [2], 0.171 µM; in data set [3], 0.00251 µM; in [4] it was 725 µM. Besides, the “% Aβ 40 reduction in rat CSF at 10 mpk” value in data set [5] is on record as 13%. The “% Aβ 40 reduction in rat brain at 10 mpk” value in data set [6] was 16%.
`C[C@@]1(c2cc(-c3cncnc3)c(F)cc2F)CCSC(N)=N1` [LY2811376, (S)-4-(2,4-difluoro-5-pyrimidin-5-yl-phenyl)-4-methyl-5,6-dihydro-4H-[1,3]thiazin-2-ylamine]: in data set [7], the “Aβ reductions in lumbar CSF” value is “Prominent and long-lasting Aβ reductions”. Further, the safety and tolerability entry in data set [8] is “safe and well tolerated”.
For `C[C@@]1(c2cc(-c3cncnc3)c(F)cc2F)CCSC(N)=N1` [LY 2811376], the “retinal toxicity finding in rat toxicology studies” value in data set [9] is recorded as “damaged the pigment epithelium of the rat's eye”. For the same compound, in [10], the “eye assessments of people from the Ph I dosing trial” value is “did not show any abnormalities”.
As for `CN1C(=N)N[C@](C)(c2cc(NC(=O)c3ccc(F)cn3)ccc2F)CS1(=O)=O` [MK-8931], the “reduction of CSF Aβ40 concentrations” value in data set [11] (single dose of 100 mg) is reported as 75%; in data set [11] (single dose of 550 mg), 92%. In addition, the tolerability entry in data set [12] was “generally well tolerated”.

Source of the values: US20160046618A1, “Cyclopropyl Fused Thiazin-2-Amine Compounds as Beta-Secretase Inhibitors and Methods of Use” (AMGEN INC., priority 2014, published 2016).
